Data reported in patent publication EP4775586A1, “DEUTERATED TETRACYCLIC DERIVATIVE AND USE THEREOF” (priority 2023, dated 2025).

What was measured:
CYP2A6 = type: in vitro ADME, mouse
Method: (§1) This example was to detect the CYP450 metabolic enzyme phenotype of the deuterated compound YF027 and its non-deuterated control compound A (using a CYP450 enzyme metabolic phenotype research kit (recombinant enzymatic method/7 enzymes)-mouse liver microsome test).
(§2) • a. The test compound was prepared into a 40 mM stock solution for later use. 2.5 µL of the stock solution was taken and diluted with DMSO to a test compound concentration of 200 µM, and the compound at this concentration was used in subsequent tests. • b. The working solution concentration of the mixed positive substrates, phenacetin and testosterone, was 200 µM.
(§3) 1) The components of the kit were thawed in an ice bath. The mixture was well mixed by vortexing and then placed on ice for later use. 2) In addition to the microsomes, the other components of the incubation systems were mixed according to the ratios and well mixed by pipetting, and the ratios of the incubation systems are shown below; Table 6. Incubation system of positive control group
(§4) The inhibitors were quinidine, naphthoflavone, pilocarpine, sodium diethyldithiocarbamate, ticlopidine, ketoconazole, and sulfaphenazole, which corresponded to the inhibition of CYP450 enzymes CYP2D6, CYP1A2, CYP2A6, CYP2E1, CYP2C19, CYP3A4, and CYP2C9, respectively. Table 9. Incubation system of negative control group
(§5) 3) Except for the negative control group (Table 9), 3.125 µL of liver microsomes was added to each of the above incubation systems to prepare 125 µL of reaction solution. The reaction solutions were well mixed by vortexing, and then placed in a water bath at 37 °C to initiate the reaction. A timer was set. 4) At time points of 0 min and 90 min, 50 µL of reaction solution was taken, and a pre-cooled acetonitrile solution was added to the reaction solution. The mixture was quickly well mixed by vortexing to stop the reaction. 5) Mass spectrometry detection pretreatment of reaction solution
(§6) The reaction solution was cryopreserved in a refrigerator at -80 °C overnight and then centrifuged for mass spectrometry detection.
(§7) The detection values after 90 min of incubation were processed as ratios relative to the 0-min detection values to determine the metabolic rate of the compounds in different experimental groups after 90 min. The metabolic inhibition rate was then calculated using the formula: Inhibition rate (%) = (1 - metabolic rate of sample with inhibitor/metabolic rate of sample without inhibitor) × 100%, as shown in Table 10 below. […] The metabolic inhibition rate reflects the effect on the metabolic elimination of the drug after adding different selective inhibitors. Therefore, when the metabolic inhibition rate of a specific enzyme is ≥ 25%, the contribution of the specific enzyme to the clearance of the drug under study can be inferred to be ≥ 25% based on the results of the in vitro metabolism study.

CYP2C19 = type: in vitro ADME, mouse
Method: as §1, §2, §3, §4, §5, §6, §7

CYP2C9 = type: in vitro ADME, mouse
Method: as §1, §2, §3, §4, §5, §6, §7

CYP2D6 = type: in vitro ADME, mouse
Method: as §1, §2, §3, §4, §5, §6, §7

CYP3A4 = type: in vitro ADME, mouse
Method: as §1, §2, §3, §4, §5, §6, §7

CYP1A2 = biological target: T1, CYP1A2 (Mus musculus, UniProt P00186); type: in vitro ADME
T1 construct: from tissue; host or cells: mouse liver microsomes (component of a kit)
T1 sequence (P00186 1-513): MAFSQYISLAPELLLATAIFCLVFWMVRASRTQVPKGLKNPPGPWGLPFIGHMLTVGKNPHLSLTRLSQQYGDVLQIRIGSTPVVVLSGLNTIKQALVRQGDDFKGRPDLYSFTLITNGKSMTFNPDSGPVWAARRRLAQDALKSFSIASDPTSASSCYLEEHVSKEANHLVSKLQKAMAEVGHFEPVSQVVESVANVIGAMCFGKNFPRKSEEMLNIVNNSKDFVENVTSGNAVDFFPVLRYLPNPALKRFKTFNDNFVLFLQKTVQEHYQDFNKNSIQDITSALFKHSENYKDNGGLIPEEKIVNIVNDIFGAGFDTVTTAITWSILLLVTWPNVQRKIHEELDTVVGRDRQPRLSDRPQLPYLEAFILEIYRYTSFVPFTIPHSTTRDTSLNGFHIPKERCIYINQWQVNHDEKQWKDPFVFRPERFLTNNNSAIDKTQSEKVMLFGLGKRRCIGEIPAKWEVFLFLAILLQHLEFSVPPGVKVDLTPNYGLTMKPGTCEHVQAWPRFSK
Method: as §1, §2, §3, §4, §5, §6
as §7, with “Therefore, when the metabolic inhibition rate of a specific enzyme is ≥ 25%, the contribution of the specific enzyme to the clearance of the drug under study can be inferred to be ≥ 25% based on the results of the in vitro metabolism study.” left out

CYP2E1 = biological target: T2, CYP2E1 (Mus musculus, UniProt Q05421); type: in vitro ADME
T2 construct: from tissue; host or cells: mouse liver microsomes (component of a kit)
Method: as §1, §2, §3, §4, §5, §6
as §7, with “Therefore, when the metabolic inhibition rate of a specific enzyme is ≥ 25%, the contribution of the specific enzyme to the clearance of the drug under study can be inferred to be ≥ 25% based on the results of the in vitro metabolism study.” left out

[1] = system: Mycobacterium tuberculosis H37Rv; type: in vivo, BALB/c mice
[2] = 28-day repeat-dose toxicity study in mice; type: in vivo, Balb/c mice
Method: Administration groups of the compound YF027 of the present disclosure and its non-deuterated control compound A were set for a 28-day repeat-dose toxicity study in mice. Each compound was administered to 10 Balb/c mice (5 females and 5 males, purchased from Beijing Vital River Laboratory Animal Technology Co., Ltd.) by intragastric administration. The administration was performed once daily for 6 consecutive days a week for 4 consecutive weeks, and an 8% Tween 80 vehicle control group (10 Balb/c mice, 5 females and 5 males) was set for administration at the same volume using the same method. Table 12. Administration information of repeat-dose toxicity assay
During the administration period, the mice were observed every day. The body weight, appearance signs, behavior and activity, fecal traits, and local reactions at the site of administration were recorded. After the end of the administration, the gross anatomy was performed on the mice in the administration group and the control group. The serum of the mice was collected, and the heart, liver, spleen, kidney, lung, and brain tissues and organs were weighed to calculate organ coefficients. The tissue samples of all groups were subjected to histopathological detection, and the serum samples were analyzed for biochemical parameters of liver and kidney functions. The serum biochemical parameters included: alanine aminotransferase (ALT), aspartate aminotransferase (AST), alkaline phosphatase (ALP), urea (UREA), creatinine (CREA), total protein (TP), and albumin (ALB). Statistical analysis was performed to evaluate potential toxic effects of the compounds.

T2 sequence (Q05421 whole entry): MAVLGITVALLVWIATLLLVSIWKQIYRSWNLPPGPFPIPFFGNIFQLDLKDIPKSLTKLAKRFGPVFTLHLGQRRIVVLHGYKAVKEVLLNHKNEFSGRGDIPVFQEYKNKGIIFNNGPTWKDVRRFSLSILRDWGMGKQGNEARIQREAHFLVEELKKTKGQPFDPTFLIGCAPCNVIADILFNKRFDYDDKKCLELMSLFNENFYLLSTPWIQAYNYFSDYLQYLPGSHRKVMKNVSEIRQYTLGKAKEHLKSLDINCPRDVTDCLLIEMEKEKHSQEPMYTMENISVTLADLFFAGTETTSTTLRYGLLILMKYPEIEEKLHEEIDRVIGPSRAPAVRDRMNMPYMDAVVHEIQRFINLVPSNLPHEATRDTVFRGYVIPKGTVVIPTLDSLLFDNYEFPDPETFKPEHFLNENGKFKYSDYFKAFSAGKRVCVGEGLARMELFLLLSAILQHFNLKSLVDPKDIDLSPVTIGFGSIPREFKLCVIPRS

Structure (SMILES): Cl.[2H]C1([2H])CCCC([2H])([2H])N1C([2H])([2H])c1c(O)cc(C(C)(C)C)c2oc3c4ccc(O)cc4oc(=O)c3c12 [YF027, 10-(tert-Butyl)-3,8-dihydroxy-7-((piperidin-1-yl-2,2,6,6-d4)methyl-d2)-6H-benzofuran[3,2-c]chromen-6-one hydrochloride]
- Inhibition rate (CYP2A6): 14.0%
- Inhibition rate (CYP2C19): -5.7%
- Inhibition rate (CYP2C9): 3.7%
- Inhibition rate (CYP2D6): -1.3%
- Inhibition rate (CYP3A4): 16.5%
- Inhibition rate (CYP1A2): 0.4%
- Inhibition rate (CYP2E1): -15.1%
- pulmonary Mycobacterium tuberculosis clearance rate ([1]; 100 mg/kg intragastrically, 4 weeks, mice): 99.0%
- reduction of pulmonary bacterial load ([1]; mouse, in vivo): 1.98 log
- toxic response after repeated administration ([2]; 100 mg/kg for 28 consecutive days, mice): did not produce a significant toxic response
- mortality during the administration period ([2]; 100 mg/kg intragastric, once daily, 6 days a week, 4 weeks, Balb/c mice): no mice died
- toxicity compared with the non-deuterated compound A ([2]; same dosing conditions, 100 mg/kg, 28 days, mice): no increased toxicity was observed
